Test results reported in US8507674B2, “Quorum sensing inhibitor” (The University of Tokyo, priority 2007, dated 2013).

Tests used:
Burkholderia glumae [1] = test: Test Example 6: onset of infection on rice, test liquid sprayed after infection; type: in vivo; settings: for percentage of flower clusters with score 0: score 0 = less than 0.1% diseased; for percentage of flower clusters with score 0 / percentage of flower clusters with score 1 / percentage of flower clusters with score 2 / percentage of flower clusters with score 3 / percentage of flower clusters with score 4 / percentage of flower clusters with score 5: rice, 7 days; for percentage of flower clusters with score 1: score 1 = 0.1-20% diseased; for percentage of flower clusters with score 2: score 2 = 20-40% diseased; for percentage of flower clusters with score 3: score 3 = 40-60% diseased; for percentage of flower clusters with score 4: score 4 = 60-80% diseased; for percentage of flower clusters with score 5: score 5 = 80-100% diseased
Method: A test liquid and a culture solution for infection were prepared in the same manner as in Test Example 5, and the culture solution for infection was sprayed onto Korean rice (Milyang 23) raised in a hothouse until the flowering stage. One hour after the spraying, each test liquid (10 mL) was sprayed onto the rice. After cultivation for seven days, the onset of Burkholderia glumae infection on the rice was evaluated in the same manner as in Test Example 4. The same evaluation was conducted as the comparative test in the same manner except that water was used instead of the test liquid. Further, the same evaluation was conducted to serve as a blank using water instead of both the test liquid and the culture solution for infection.

Burkholderia glumae [2] = test: Test Example 5: onset of infection on rice, test liquid sprayed before infection; type: in vivo; settings: for percentage of flower clusters with score 0: score 0 = less than 0.1% diseased; for percentage of flower clusters with score 0 / percentage of flower clusters with score 1 / percentage of flower clusters with score 2 / percentage of flower clusters with score 3 / percentage of flower clusters with score 4 / percentage of flower clusters with score 5: rice, 7 days; for percentage of flower clusters with score 1: score 1 = 0.1-20% diseased; for percentage of flower clusters with score 2: score 2 = 20-40% diseased; for percentage of flower clusters with score 3: score 3 = 40-60% diseased; for percentage of flower clusters with score 4: score 4 = 60-80% diseased; for percentage of flower clusters with score 5: score 5 = 80-100% diseased
Method: A dimethyl formamide solution (1,000 ppm) of Compound (1) was diluted with water to have a predetermined concentration (50, 100 or 200 μM) to prepare a test liquid. In a separate procedure, Burkholderia glumae were seeded to an LB culture medium and cultured overnight at 37° C., preparing a culture solution for infection.
Each test liquid (10 mL) was sprayed onto Korean rice (Milyang 23) raised in a hothouse until the flowering stage. The culture solution for infection was sprayed onto the rice one hour after the application of the test liquid. After cultivation for seven days, the onset of Burkholderia glumae infection on the rice was evaluated.
The evaluation was conducted by picking an ear from each plant, making a total of three ears. In each flower cluster (grain), the percentage of the portion that suffered from the onset of disease (i.e., the portion that turned brown) caused by the toxoflavin produced by Burkholderia glumae was visually observed and scored based on the scale shown below. The percentage of the total flower clusters was obtained and scored to indicate the onset of the disease.
The percentage that suffered from the onset of disease:
Not less than 0.1% and not greater than 20%: 1
Not less than 20% and not greater than 40%: 2
Not less than 40% and not greater than 60%: 3
Not less than 60% and not greater than 80%: 4
In this evaluation, three flower clusters (grains) having the same conditions were prepared, and reproducibility was confirmed by repeating the same evaluation three times. The same evaluation was also conducted as a comparative test except that water was used instead of the test liquid. Further, the same evaluation was conducted to serve as a blank except that water was used instead of both the test liquid and the culture solution for infection.

Burkholderia glumae [3] = test: Test Example 4: amount of toxoflavin produced in culture solution; type: cell-based; settings: 0, 20, 40, 60, 80 or 100 μM, shake culturing 20 hours, FIG. 3
Method: Burkholderia glumae was inoculated into an LB culture medium, and cultured at 37° C. overnight. The thus-obtained culture solution was subjected to bacterial collection using a centrifuge, and washed with an LB culture medium twice using a fresh LB culture medium each time. To the bacterial cell a fresh LB culture medium was added, and then Compound (1) produced in Production Example 1 was added thereto in such a manner that its final concentration became a predetermined value (i.e., 0, 20, 40, 60, 80 or 100 μM), followed by shake culturing for 20 hours. The amount of toxoflavin produced by the bacterial cell in the culture solution was obtained by the following procedure.
Each culture solution was filtered by 0.22-μm membrane filter, and 1 mL of the filtrate was isolated. One mL of chloroform was added to the filtrate, followed by extraction. The thus-obtained chloroform layer was concentrated under reduced pressure, and an 80% (V/V) an aqueous methanol solution was added to and dissolved in the residue. The absorbance (at 260 nm) of the solution was measured, and the toxin doses were calculated from the calibration curve, which was obtained using a chemically synthesized standard toxin.

Burkholderia glumae [4] = test: Test Example 3: number of microorganisms versus culturing time and concentration; type: cell-based; settings: 80 μM or 100 μM, 20 to 40 hours culturing, FIG. 2
Method: Burkholderia glumae was inoculated into an LB culture medium, and cultured at 37° C. overnight. The thus-obtained culture solution was subjected to bacterial collection using a centrifuge, washed with an LB culture medium twice using a fresh LB culture medium each time. To the bacterial cell a fresh LB culture medium was added to prepare a culture suspension of about 3.0×10^5 cfu/mL. Thereafter, Compound (1) produced in Production Example 1 was added to the culture suspension in such a manner that its final concentration became a predetermined value (i.e., 0 μM, 80 μM, or 100 μM), followed by shake culturing for 40 hours. The number of microorganisms in the culture solution after a predetermined time (i.e., 20, 24, 28, 32, 36 and 40 hours) was obtained by the following procedure. Specifically, a portion of the culture solution was removed and diluted 1,000-fold, and then seeded to an LB culture medium agar plate. The number of colonies was counted to obtain the number of microorganisms.

[5] = 50 μM sprayed 1 h after infection
[6] = 100 μM sprayed 1 h after infection
[7] = 200 μM sprayed 1 h after infection
[8] = 50 μM sprayed 1 h before infection
[9] = 100 μM sprayed 1 h before infection
[10] = 200 μM sprayed 1 h before infection

CCCc1cc(=O)n2cccc(O)c2n1 [Compound (1), 2-n-propyl-9-hydroxy-4H-pyrid[1,2-a]pyrimidin-4-one]
percentage of flower clusters with score 0 (Burkholderia glumae [1]; [5]): 88% | percentage of flower clusters with score 0 (Burkholderia glumae [1]; [6]): 85% | percentage of flower clusters with score 0 (Burkholderia glumae [1]; [7]): 89% | percentage of flower clusters with score 1 (Burkholderia glumae [1]; [5]): 2% | percentage of flower clusters with score 1 (Burkholderia glumae [1]; [6]): 5% | percentage of flower clusters with score 1 (Burkholderia glumae [1]; [7]): 3% | percentage of flower clusters with score 2 (Burkholderia glumae [1]; [5]): 4% | percentage of flower clusters with score 2 (Burkholderia glumae [1]; [6]): 3% | percentage of flower clusters with score 2 (Burkholderia glumae [1]; [7]): 3% | percentage of flower clusters with score 3 (Burkholderia glumae [1]; [5]): 2% | percentage of flower clusters with score 3 (Burkholderia glumae [1]; [6]): 3% | percentage of flower clusters with score 3 (Burkholderia glumae [1]; [7]): 2% | percentage of flower clusters with score 4 (Burkholderia glumae [1]; [5]): 2% | percentage of flower clusters with score 4 (Burkholderia glumae [1]; [6]): 2% | percentage of flower clusters with score 4 (Burkholderia glumae [1]; [7]): 2% | percentage of flower clusters with score 5 (Burkholderia glumae [1]; [5]): 2% | percentage of flower clusters with score 5 (Burkholderia glumae [1]; [6]): 2% | percentage of flower clusters with score 5 (Burkholderia glumae [1]; [7]): 1% | onset of Burkholderia glumae on rice (Burkholderia glumae [1]; test liquid 50, 100 or 200 μM sprayed after the culture solution for infection): prevented | percentage of flower clusters with score 0 (Burkholderia glumae [2]; [8]): 68% | percentage of flower clusters with score 0 (Burkholderia glumae [2]; [9]): 80% | percentage of flower clusters with score 0 (Burkholderia glumae [2]; [10]): 82% | percentage of flower clusters with score 1 (Burkholderia glumae [2]; [8]): 7% | percentage of flower clusters with score 1 (Burkholderia glumae [2]; [9]): 6% | percentage of flower clusters with score 1 (Burkholderia glumae [2]; [10]): 6% | percentage of flower clusters with score 2 (Burkholderia glumae [2]; [8]): 6% | percentage of flower clusters with score 2 (Burkholderia glumae [2]; [9]): 4% | percentage of flower clusters with score 2 (Burkholderia glumae [2]; [10]): 6% | percentage of flower clusters with score 3 (Burkholderia glumae [2]; [8]): 7% | percentage of flower clusters with score 3 (Burkholderia glumae [2]; [9]): 3% | percentage of flower clusters with score 3 (Burkholderia glumae [2]; [10]): 2% | percentage of flower clusters with score 4 (Burkholderia glumae [2]; [8]): 6% | percentage of flower clusters with score 4 (Burkholderia glumae [2]; [9]): 3% | percentage of flower clusters with score 4 (Burkholderia glumae [2]; [10]): 2% | percentage of flower clusters with score 5 (Burkholderia glumae [2]; [8]): 6% | percentage of flower clusters with score 5 (Burkholderia glumae [2]; [9]): 4% | percentage of flower clusters with score 5 (Burkholderia glumae [2]; [10]): 2% | onset of Burkholderia glumae on rice (Burkholderia glumae [2]; test liquid 50, 100 or 200 μM sprayed before the culture solution for infection): prevented | toxin doses produced by bacteria (toxoflavin) (Burkholderia glumae [3]): remarkably decreased | control effect against Burkholderia glumae (number of microorganisms) (Burkholderia glumae [4]): excellent control effect
